Data taken from patent US5840750A, “Discodermolide compounds” (priority 1996, dated 1998).
pEC50, pIC50: −log10 of the molar value. Where two headings read alike, the source gives them in different places.

Experiments:
MDA-N = test: NCI in vitro tumor cell line panel, LC50, breast cancer; assay type: cell-based, human
Source text: (§1) Discodermolide was additionally evaluated for its anti-proliferative effects utilizing the National Cancer Institute's in vitro tumor cell line panel. The results of these analyses are shown in the mean graphs presented as FIGS. 1A-1K. The data are presented using known and accepted measurements of "Growth Inhibition-50" (GI50), where growth of 50% of the cells is inhibited; "Total Growth Inhibition" (TGI), where growth of all cells is inhibited, i.e., cytostasis; and "Lethal Concentration-50" (LC50), where 50% of the cells are killed.

MDA-MB-435 = test: as above; assay type: cell-based, human
Source text: as §1

HCC-2998 = test: NCI in vitro tumor cell line panel, LC50, colon cancer; assay type: cell-based; details: human colon cancer (HCC-2998)
Source text: as §1

COLO 205 = test: as above; assay type: cell-based; details: human colon cancer (COLO 205)
Source text: as §1

A549 human lung cells = test: Cell cycle analysis of A549 human lung cells; assay type: cell-based; details: 48 hours; for percentage of S phase cells (in words): control 19%; for percentage of cells in G2 /M / percentage of cells in G1: discodermolide 100 ng/ml; for percentage of cells in G2 /M: control 4%; for percentage of cells in G1: control 77%
Experimental: (§2) Cell cycle studies were initiated in order to pinpoint a specific phase within the cell cycle in which discodermolide was exerting its antiproliferative effect. GI-101A human breast and A549 human lung cells were used as cell cycle targets to compare the effects of discodermolide and taxol on perturbation of the cell cycle. Cell cycle analyses were performed as follows: GI-101A and A549 cells were incubated at 37° C. in 10% CO2 in air in the presence or absence of varying concentrations of discodermolide or taxol (purchased from Molecular Probes, Eugene, Oreg.) for 48 hours. Cells were harvested, fixed in ethanol, and stained with 0.5 mg/ml of propidium iodide (P.I.) together with 0.1 mg/ml of RNase A. This procedure permeabilizes live cells and allows entry of P.I. to stain DNA. Stained preparations were analyzed on a Coulter EPICS ELITE with 488 nm excitation with the dead cells excluded by back-gating of P.I. preparations without detergent on forward and side scatter histograms. Fluorescence measurements and resulting DNA histograms were collected from at least 5,000 P.I. stained cells at an emission wavelength of 690 nm. Raw histogram data were further analyzed using a cell cycle analysis program (Multicycle, Phoenix Flow Systems).
Discodermolide and taxol were compared for their effects on the proliferation of A549 human lung cells. Cell cultures were similarly initiated in the presence and absence of various concentrations of discodermolide or taxol and incubated at 37° C. in 10% CO2 in air for 48 hours. Cells were harvested and stained and analyzed on the flow cytometer as outlined above.

tubulin [1] = test: EC50 for the polymerization of tubulin; assay type: biochemical; details: additional studies
Experimental: (§3) Discodermolide was analyzed for its interactions with tubulin. Tubulin polymerization was monitored turbidimetrically at 350 nm with an electronic temperature controller. Reaction mixtures contained 0.1M 4-morpholine-ethanesulfonate (pH 6.9), 1.0 mg/ml (10 μM) electrophoretically-homogenous bovine brain tubulin freed of unbound nucleotide by gel filtration, 0.5 mg/ml heat-treated MAPs, 100 μM GTP, and 4% (v/v) dimethylsulfoxide. A concentration of 10 μM of discodermolide (curve 3) was compared with the same concentration of taxol (curve 2) and no drug (curve 1), as shown in FIG. 5.

F7 Fibroblast = test: Constitutive proliferation of murine non-lymphoid F7 fibroblasts; assay type: cell-based; details: Mus musculus, best response
Source text: (§7) The effects of discodermolide on the inhibition of constitutive proliferation of a number of lymphoid and non-lymphoid cell lines of mouse or human origin was investigated.

SF 539 = test: NCI in vitro tumor cell line panel, LC50, CNS cancer; assay type: cell-based, human
Source text: as §1

SF 295 = test: as above; assay type: cell-based, human
Source text: as §1

human tumor cell lines = test: National Cancer Institute's in vitro tumor cell line panel; assay type: cell-based
Source text: as §1

NCI-H23 = test: NCI in vitro tumor cell line panel, LC50, non-small cell lung cancer; assay type: cell-based; details: human non-small cell lung cancer (NCI-H23)
Source text: as §1

70Z/3 Pre-B = test: Constitutive proliferation of murine lymphoid 70Z/3 Pre-B cells; assay type: cell-based; details: Mus musculus; 70Z/3 Pre-B proliferation; best response
Source text: as §7

[2] = system: microtubule cytoskeleton in MCF-7 cells and MDA-MB-231 cells; test: Indirect immunofluorescence for effects on the microtubule cytoskeleton of human breast carcinoma cells; assay type: cell-based; details: for minimal effective concentration: Homo sapiens, Breast carcinoma cell
Experimental: (§4) The effect of discodermolide on two human breast carcinoma cell lines, estrogen receptor positive MCF-7 cells, and estrogen receptor negative MDA-MB-231 cells, was determined. The results were compared with those obtained by treatment with taxol. Both lines were examined for drug effects on growth and by indirect immunofluorescence for effects on the microtubule cytoskeleton. The results were similar for both lines. […] These patterns appeared at concentrations as low as 10 nm.

tubulin [3] = test: Assembly of tubulin without MAPs or GTP; assay type: biochemical
Experimental: as §3, with “[…],” for “0.5 mg/ml heat-treated MAPs, 100 μM GTP,”

[4] = system: murine lymphoid and non-lymphoid cell lines; test: Constitutive proliferation of murine lymphoid and non-lymphoid cell lines (summary); assay type: cell-based; details: Mus musculus, read-out: IC50 values, range over murine cell lines
Source text: as §7

M14 = test: NCI in vitro tumor cell line panel, LC50, melanoma; assay type: cell-based; details: human melanoma (M14)
Source text: as §1

BMSC 8.3 = test: Constitutive proliferation of murine non-lymphoid BMSC 8.3 cells; assay type: cell-based
Source text: (§5) ^d Bone marrow stromal cells (MBSC) derived from CS7BL/6 mice.

BMSC 8.6 = test: Constitutive proliferation of murine non-lymphoid BMSC 8.6 cells; assay type: cell-based
Source text: as §5

[5] = system: GI-101A human breast cells; test: Cell cycle analysis of GI-101A human breast cells; assay type: cell-based; details: 24 hours; for effect on cell cycle progression: GI-101A; for percentage of cells in G2 /M / percentage of S phase cells / percentage of cells in G1 phase: discodermolide 100 ng/ml; for percentage of cells in G2 /M: control 14%; for percentage of S phase cells: control 30%; for percentage of cells in G1 phase: control 56%
Experimental: as §2
Approximately 56% of the control cells comprise the G1 phase of the cell cycle, and 30% comprise the S phase. Only approximately 14% of cells are demonstrable in the G2 /M phase in asynchronous cultures at any one time mainly due to their high proliferative rate (FIG. 2A). At 24 hours post culture initiation with 100 ng/ml of discodermolide, the percentage of cells in G1 phase decreased to 22%. […] The percentage of cells in G1 decreased from 56% in the control to 27% in taxol-treated cultures.

Normal Fibroblast = test: Constitutive proliferation of human non-lymphoid normal (foreskin) fibroblasts
[6] = as above; details: human, foreskin fibroblasts
Swiss 3TC = test: Constitutive proliferation of murine non-lymphoid Swiss 3TC cells; assay type: cell-based
Source text: as §7

[7] = system: MCF-7 cells and MDA-MB-231 cells; test: Growth of human breast carcinoma cells; assay type: cell-based; details: Breast carcinoma cell, results similar for both lines (MCF-7, MDA-MB-231)
Experimental: as §4

[8] = system: Jurkat human leukemia cells; test: Cell cycle analysis of Jurkat human leukemia cells; assay type: cell-based; details: 48 hours, discodermolide 100 ng/ml; for percentage of cells in G2 /M: control 7%; for percentage of S-phase cells: control 25%; for percentage of cells in G1: control 68%
Experimental: Discodermolide and taxol were compared for their effects on the proliferation of Jurkat human leukemia cells. Cell cultures were similarly initiated in the presence and absence of various concentrations of discodermolide or taxol and incubated at 37° C. in 10% CO2 in air for 48 hours. Cells were harvested and stained and analyzed on a flow cytometer using standard procedures. […] The percentage of S-phase cells in both groups increased from 25% in the control to 38% in both discodermolide- and taxol-treated cells.

tubulin [9] = test: Electron micrographs of polymers of tubulin; assay type: biochemical; details: compared with control
bovine brain tubulin = test: Tubulin polymerization monitored turbidimetrically; assay type: biochemical; details: for temperature at which tubulin polymerization/assembly began: 10 μM tubulin, MAPs, GTP, control 37° C.; for stability of assembly upon return of the mixture to 0° C.: control disassembled
Experimental: as §3

BMSC 25.4 = test: Constitutive proliferation of murine non-lymphoid BMSC 25.4 cells; assay type: cell-based
Source text: as §5

EL-4 Thymoma = test: Constitutive proliferation of murine lymphoid EL-4 thymoma cells; assay type: cell-based; details: Mus musculus; EL-4 Thymoma proliferation; best response
Source text: as §7

microtubules = details: literature; cited from earlier work
cancers = details: clinical trials; cited from earlier work
A549 = A549 IC50 (biological activity of octahydrodiscodermolide compounds); assay type: cell-based, human
Experimental: (§6) The octahydrodiscodermolide compounds were tested for biological activity and the following results obtained: […]

P388 = P388 IC50 (biological activity of octahydrodiscodermolide compounds); assay type: cell-based
Experimental: as §6

C=C/C=C\C(C)C(OC(N)=O)C(C)C(O)C(C)C/C(C)=C\C(C)C(O)C(C)/C=C\C(O)CC1OC(=O)C(C)C(O)C1C (single isomer, unassigned) [discodermolide]
LC50 (in words) (MDA-N): particularly effective
LC50 (in words) (MDA-MB-435): particularly effective
LC50 (in words) (HCC-2998): particularly effective
LC50 (in words) (COLO 205): particularly effective
percentage of S phase cells (in words) (A549 human lung cells): did not change significantly
percentage of cells in G2 /M (A549 human lung cells): 67%
percentage of cells in G1 (A549 human lung cells): 18%
pEC50 (tubulin [1]): 5.57
pIC50 (F7 Fibroblast): 7.22
LC50 (in words) (SF 539): particularly effective
LC50 (in words) (SF 295): particularly effective
selective cytotoxicity, number of cell lines for GI50 (human tumor cell lines; approximately 60 cell lines tested, GI50): 32 cell lines
selective cytotoxicity, number of cell lines for TGI (human tumor cell lines; approximately 60 cell lines tested, TGI): 18 cell lines
cytotoxicity pattern (COMPARE algorithm) (human tumor cell lines; statistical analysis of selective toxicity pattern): matched that of several previously tested microtubule interactive agents, including the pattern generated by taxol
LC50 (in words) (NCI-H23): particularly effective
pIC50 (70Z/3 Pre-B): 8.52
minimal effective concentration ([2]; read-out: concentration at which immunofluorescence patterns appeared): 0.01 µM
Immunofluorescence patterns ([2]; cellular microtubules): remarkable rearrangement of cellular microtubules
assembly of tubulin without MAPs or GTP (tubulin [3]): induced the assembly of tubulin
assembly reactions compared to taxol (tubulin [3]; especially at low temperatures): more dramatic compared to those observed with taxol
pIC50 [4]: 7.22 to 8.52
LC50 (in words) (M14): particularly effective
pIC50 (BMSC 8.3; Mus musculus, BMSC 8.3 proliferation, best response): 7.30
pIC50 (BMSC 8.6; Mus musculus, BMSC 8.6 proliferation, best response): 7.08
effect on cell cycle progression [5]: block at G2 /M phase of the cell cycle
percentage of cells in G2 /M [5]: 38%
percentage of S phase cells [5]: 41%
percentage of cells in G1 phase [5]: 22%
pIC50 (Normal Fibroblast; Homo sapiens, Fibroblast): 7.82
viable cell recovery (toxicity) (Normal Fibroblast; human foreskin fibroblast, concentrations up to 3.0 μM): not affected
CC50 [6]: > 3 µM
pIC50 (Swiss 3TC; Mus musculus, Swiss 3TC proliferation, best response): 7.43
pIC50 [7]: 8.62
percentage of cells in G2 /M [8]: 27%
percentage of S-phase cells [8]: 38%
percentage of cells in G1 [8]: 35%
electron micrographs of polymers of tubulin (tubulin [9]): very similar characteristics, presence of polymers, microtubules, and sheets
extent of tubulin polymerization at 0° C. (bovine brain tubulin; 10 μM drug, 0° C.): almost complete
temperature at which tubulin polymerization/assembly began (bovine brain tubulin; 10 μM drug): 0 °C
stability of assembly upon return of the mixture to 0° C. (bovine brain tubulin; 10 μM drug): remained stable
mechanism of action in regard to stabilization of microtubules (bovine brain tubulin; compared to taxol): superior to that of taxol
pIC50 (BMSC 25.4; Mus musculus, BMSC 25.4 proliferation, best response): 7.23
pIC50 (EL-4 Thymoma): 7.52

CC(=O)O[C@H]1C(=O)[C@@]2(C)[C@H]([C@H](OC(=O)c3ccccc3)[C@]3(O)C[C@H](OC(=O)[C@H](O)[C@@H](NC(=O)c4ccccc4)c4ccccc4)C(C)=C1C3(C)C)[C@]1(OC(C)=O)CO[C@@H]1C[C@@H]2O [taxol, reference compound]
effect on microtubules (microtubules): stabilizes microtubules and inhibits their depolymerization to free tubulin
clinical effect (cancers): effective in the treatment of a wide range of cancers
percentage of S phase cells (in words) (A549 human lung cells): did not change significantly
percentage of cells in G2 /M (A549 human lung cells): 77%
percentage of cells in G1 (A549 human lung cells): 11%
pEC50 (tubulin [1]): 4.64
minimal effective concentration ([2]; only at much higher drug concentrations, read-out: concentration at which immunofluorescence changes occurred): 1 µM
effect on cell cycle progression [5]: block at G2 /M
percentage of cells in G2 /M [5]: 37%
percentage of S phase cells [5]: 37%
percentage of cells in G1 phase [5]: 27%
pIC50 [7]: 8.68
percentage of cells in G2 /M [8]: 28%
percentage of S-phase cells [8]: 38%
percentage of cells in G1 [8]: 34%
electron micrographs of polymers of tubulin (tubulin [9]): very similar characteristics, presence of polymers, microtubules, and sheets; however, the taxol-inducedpolymers were somewhat longer than those induced with discodermolide
temperature at which tubulin polymerization/assembly began (bovine brain tubulin; 10 μM drug): 10 °C
stability of assembly upon return of the mixture to 0° C. (bovine brain tubulin; 10 μM drug): modest decline

Cyclosporin A [reference compound]
inhibition (Cyclosporin A) (BMSC 8.3; BMSC lines, up to 1 μg/ml): no
inhibition (Cyclosporin A) (BMSC 8.6; BMSC lines, up to 1 μg/ml): no
inhibition (Cyclosporin A) (Normal Fibroblast; human fibroblasts, up to 3 μM): no
inhibition (Cyclosporin A) (Swiss 3TC; 3T3, up to 1 μg/ml): no
inhibition (Cyclosporin A) (BMSC 25.4; BMSC lines, up to 1 μg/ml): no

octahydrodiscodermolide [20SG721]
IC50 (A549): 0.008 µg/mL
IC50 (P388): 0.02 µg/mL

octahydrodiscodermolide [20SG724]
IC50 (A549): > 5 µg/mL
IC50 (P388): 3.56 µg/mL
